Results taken from patent US20050101542A1, “Combination therapy for controlling appetites” (Regents of the University of California, priority 2002, published 2005).

Columns and labels:
[1] = molecular target: T1, human PPARα (Homo sapiens, UniProt Q07869); test: GAL4 chimeric receptor transactivation assay in HeLa cells, PPARα; type: cell-based; details: HeLa transactivation assay, 7 hours; read-out: EC50 for PPARα activation
T1 construct: expressed in transfected cells; host or cells: HeLa (clonal reporter line HLR, stably transfected with pFA-PPARα)
T1 sequence (Q07869 239-466 limits assumed): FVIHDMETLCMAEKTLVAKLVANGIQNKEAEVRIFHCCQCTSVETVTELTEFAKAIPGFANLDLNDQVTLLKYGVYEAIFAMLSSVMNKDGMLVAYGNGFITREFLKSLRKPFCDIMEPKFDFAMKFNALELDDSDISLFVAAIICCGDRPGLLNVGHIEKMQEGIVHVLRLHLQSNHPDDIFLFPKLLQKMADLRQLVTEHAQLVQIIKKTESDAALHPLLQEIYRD
Experimental: Eighteen hours following transfection, the culture media was replaced with supplemented DMEM containing hygromycin (100 μg-ml^−1, Calbiochem). After 4 weeks in culture, the surviving clones were isolated and analyzed by luciferase assay. […] The cells were cultured in supplemented DMEM containing hygromycin and G418. For transactivation assays, cells were seeded in 6-well plates (50,000 cells per well) and incubated for 7 hours in supplemented DMEM containing hygromycin and G418, plus appropriate concentrations of test compounds. Dual-luciferase reporter assay system (Promega) and an MLX Microtiter® plate luminometer (Dynex) were used to determine luciferase activity in cell lysates.

[2] = Subchronic OEA in high-fat-fed obese wild-type and PPARα null mice; type: in vivo, mouse; details: 4 weeks; for hypercholesterolemia (serum cholesterol): 5 mg-kg^−1 once daily i.p.
Experimental: Subchronic experiments. Male wild-type and PPARα null mice were fed with a very high-fat diet (60 kcal % fat; D12492; Research Diets, NJ). […] The mice were divided into 4 groups (n=7-8 each), and treated them for 4 additional weeks with vehicle (saline/polyethylene glycol/Tween 80, 90/5/5; 1 ml-kg^−1) Or OEA (5 mg-kg^−1, once daily, i.p.). In a separate experiment, obese Zucker rats were treated for 2 weeks with vehicle or OEA (5 mg-kg^−1, once daily, i.p.), while maintaining them on a regular rodent chow (RMH 2500, Prolab). Food intake and body weight were measured daily. At the end of the experiments, the animals were fasted overnight, and tissues and blood samples collected for biochemical analyses.
Lipids were extracted from mouse liver and epidydimal adipose tissue (Bligh and Dyer, 1959) and measured triglycerides with a commercial kit (Sigma). Serum lipids and glucose were measured with an automated Synchron LX® system (Beckman-Coulter).

[3] = tested on: Soleus muscle; test: [14C]oleate oxidation to CO2 in soleus muscle; type: cell-based, rat; details: 10 μM, 30 min incubation
Description: (§1) This example illustrates the effect of OEA on fat metabolism and methods for studying the same. Oleoylethanolamide (OEA) decreases body weight not only by suppressing appetite, but also by possibly enhancing body fat catabolism. The effects of OEA on fatty acid oxidation in major body-fat burning tissues (soleus muscle, liver, cultured cardiac myocytes and astrocytes) was examined. […] In addition, OEA induces a significant mobilization of triacylglycerol stores from primary white adipose tissue cells. Table 4 details the methods and effects of OEA on fatty acid oxidation in these cells. Structure-activity relationship experiments provide evidence that the effect of OEA on skeletal muscle fatty acid oxidation is specific (FIG. 8).

[4] = Circulating OEA levels after OEA administration (HPLC/MS); type: in vivo; details: rat, plasma, ip; 1 hr after 5 mg per kg i.p., rats; baseline 10.1±1.1
Experimental: HPLC/MS analyses. Plasma was prepared from blood obtained by cardiac puncture (Giuffrida, et al., Anal. Biochem., 280:87-93 (2000)) and CSF was collected from the cisterna magna using a 27G ½ needle (Precisionglide, USA). FAEs and NAPE were extracted from tissues with methanol/chloroform and fractionated by column chromatography (Giuffrida, et al., “Lipid Second Messengers” (ed. Laychock, S. G. & Rubin, R. P.) 113-133 (CRC Press LLC, Boca Raton, Fla., 1998)). FAEs were quantified by HPLC/MS, using an isotope dilution method (Giuffrida, et al., Anal. Biochem., 280:87-93 (2000)). Individual NAPE species were identified and quantified by HPLC/MS, using an external standard method (Calignano, et al., Nature, 408:96-101 (2000)).
OEA elicits hypophagia at physiologically relevant doses. […] Thus, the concentrations reached by OEA in blood during starvation can be sufficient to elicit notable behavioral responses.

[5] = Subchronic OEA administration in rats (7 days): food intake, body weight, water intake; type: in vivo, rat; details: 5 mg per kg i.p. daily for seven days
Experimental: Feeding experiments. Acute experiments. Food intake was measured in 24-h food-deprived rats (Navarro, et al., J. Neurochem., 67:1982-1991 (1996)), administering drugs 15 min before food presentation. Subchronic experiments. Ad libitum fed rats received vehicle injections for three days. On day four, the animals were divided in two equal groups and gave them daily injections of vehicle or OEA (5 mg per kg at 1900 h) for 7 consecutive days, while measuring body weight, food intake and water intake.
In this example, OEA was subchronically administered to rats.

[6] = tested on: Astrocyte; test: [14C]oleate oxidation to ketone bodies in astrocytes; type: cell-based, rat; details: 30 min incubation
Description: as §1

[7] = obese wild-type mice, 5 mg-kg^−1 i.p. daily

SMILES: CCCCCCCC/C=C\CCCCCCCC(=O)NCCO [OEA, Z-2-hydroxyethyl octadec-9-enamide]
- EC50 [1]: 0.12 µM
- hypercholesterolemia (serum cholesterol) ([2]; high fat-fed PPARα-null mice): ineffective
- hypercholesterolemia (serum cholesterol) ([2]; high fat-fed wild-type mice): partially corrected
- cumulative food intake and body-weight gain ([2]; obese PPARα deficient mice, 5 mg-kg^−1 i.p. daily): no such effect
- body-weight gain [2, 7]: suppressed
- cumulative food intake (normalized for body mass) [2, 7]: significantly reduced
- Stimulatory effect of 10 μM OEA on [14C]oleate oxidation to CO2 [3]: 36 ± 10 (n = 4) %
- concentration at 1 hr [4]: 16.1 ± 2.6 nM
- cumulative food intake [5]: small, but significant decrease
- water intake [5]: did not affect
- weight gain [5]: profound inhibition of weight gain
- Stimulatory effect of 10 μM OEA on [14C]oleate oxidation to ketone bodies [6]: 2 ± 6 (n = 3) %
